Reference: ChEMBL document CHEMBL3991601, “The target landscape of clinical kinase drugs” (Science, 2017)
Active and inactive are the calls of the source. Rule as the data show it, for most assays here: actives have a measured Kd and inactives only a lower limit.

What was measured:
[1] = target: T1, Acyl-CoA dehydrogenase family member 11 (Homo sapiens, UniProt Q709F0)
T1 sequence (Q709F0 whole entry): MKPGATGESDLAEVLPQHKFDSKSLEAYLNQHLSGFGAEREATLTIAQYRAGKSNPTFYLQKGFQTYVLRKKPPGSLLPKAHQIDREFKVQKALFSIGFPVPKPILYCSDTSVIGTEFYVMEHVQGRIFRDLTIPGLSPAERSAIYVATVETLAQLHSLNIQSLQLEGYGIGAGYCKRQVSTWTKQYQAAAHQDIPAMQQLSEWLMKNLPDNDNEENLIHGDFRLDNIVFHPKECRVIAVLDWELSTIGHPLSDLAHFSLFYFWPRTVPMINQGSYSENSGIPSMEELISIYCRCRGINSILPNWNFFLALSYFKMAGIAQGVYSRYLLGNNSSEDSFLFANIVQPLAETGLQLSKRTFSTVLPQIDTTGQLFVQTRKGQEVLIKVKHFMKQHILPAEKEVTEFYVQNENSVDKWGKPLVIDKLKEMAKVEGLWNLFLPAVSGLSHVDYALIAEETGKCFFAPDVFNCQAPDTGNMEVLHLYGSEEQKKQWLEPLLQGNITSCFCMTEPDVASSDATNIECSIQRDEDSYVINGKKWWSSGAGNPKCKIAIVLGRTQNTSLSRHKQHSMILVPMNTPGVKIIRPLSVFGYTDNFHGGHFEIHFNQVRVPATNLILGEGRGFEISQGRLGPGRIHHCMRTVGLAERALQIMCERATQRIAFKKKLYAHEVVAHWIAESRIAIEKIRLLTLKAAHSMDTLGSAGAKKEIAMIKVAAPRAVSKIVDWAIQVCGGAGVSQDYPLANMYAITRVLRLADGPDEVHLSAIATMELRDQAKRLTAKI

[2] = target: Tyrosine-protein kinase BTK (Homo sapiens, UniProt Q06187)
[3] = target: Mitotic checkpoint serine/threonine-protein kinase BUB1 (Homo sapiens, UniProt O43683)
[4] = target: Cyclin-dependent kinase 12 (Homo sapiens, UniProt Q9NYV4)
[5] = target: T2, Ferrochelatase, mitochondrial (Homo sapiens, UniProt P22830)
T2 sequence (P22830 whole entry): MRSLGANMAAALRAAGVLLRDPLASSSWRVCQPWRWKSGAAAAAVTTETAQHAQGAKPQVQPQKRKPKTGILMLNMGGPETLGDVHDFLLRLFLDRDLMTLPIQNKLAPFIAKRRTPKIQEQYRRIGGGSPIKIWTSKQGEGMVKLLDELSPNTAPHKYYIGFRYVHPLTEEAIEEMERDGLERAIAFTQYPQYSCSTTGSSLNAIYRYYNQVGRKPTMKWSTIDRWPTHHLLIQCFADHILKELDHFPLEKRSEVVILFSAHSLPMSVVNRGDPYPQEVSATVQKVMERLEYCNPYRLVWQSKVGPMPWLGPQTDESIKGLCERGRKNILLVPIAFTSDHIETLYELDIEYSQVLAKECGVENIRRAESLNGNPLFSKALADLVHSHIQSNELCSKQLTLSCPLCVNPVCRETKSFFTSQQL

[6] = target: Dual specificity mitogen-activated protein kinase kinase 2 (Homo sapiens, UniProt P36507)
[7] = target: Mitogen-activated protein kinase 9 (Homo sapiens, UniProt P45984)
[8] = target: Maternal embryonic leucine zipper kinase (Homo sapiens, UniProt Q14680)
[9] = target: 5'-AMP-activated protein kinase catalytic subunit alpha-1 (Homo sapiens, UniProt Q13131)
[10] = target: Ribosomal protein S6 kinase alpha-5 (Homo sapiens, UniProt O75582)
[11] = target: Proto-oncogene tyrosine-protein kinase Src (Homo sapiens, UniProt P12931)
[12] = target: T3, Tyrosine-protein kinase Tec (Homo sapiens, UniProt P42680)
T3 sequence (P42680 whole entry): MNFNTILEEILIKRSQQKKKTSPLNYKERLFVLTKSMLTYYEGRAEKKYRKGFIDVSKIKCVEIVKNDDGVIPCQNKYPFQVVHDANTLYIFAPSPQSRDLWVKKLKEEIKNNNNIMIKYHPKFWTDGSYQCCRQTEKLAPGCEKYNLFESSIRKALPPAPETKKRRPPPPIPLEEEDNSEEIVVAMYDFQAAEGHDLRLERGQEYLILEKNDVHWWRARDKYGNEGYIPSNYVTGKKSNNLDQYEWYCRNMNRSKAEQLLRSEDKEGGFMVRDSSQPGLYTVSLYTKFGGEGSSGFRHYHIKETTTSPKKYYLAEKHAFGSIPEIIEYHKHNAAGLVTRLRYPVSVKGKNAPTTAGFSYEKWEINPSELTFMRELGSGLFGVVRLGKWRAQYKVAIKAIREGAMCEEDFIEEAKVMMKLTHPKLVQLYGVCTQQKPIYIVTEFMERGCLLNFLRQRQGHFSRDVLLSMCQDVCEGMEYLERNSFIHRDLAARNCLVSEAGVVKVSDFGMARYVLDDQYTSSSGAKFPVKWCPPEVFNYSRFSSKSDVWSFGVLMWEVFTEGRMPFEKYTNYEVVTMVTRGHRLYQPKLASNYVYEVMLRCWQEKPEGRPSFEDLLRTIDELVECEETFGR

[13] = target: TGF-beta receptor type-2 (Homo sapiens, UniProt P37173)
[14] = target: DNA topoisomerase 2-beta (Homo sapiens, UniProt Q02880)
[15] = target: T4, Uncharacterized protein FLJ45252 (Homo sapiens, UniProt Q6ZSR9); details: read-out: Kd apparent; k-562, colo 205, sk-n-be(2) and mv-4-11
T4 sequence (Q6ZSR9 whole entry): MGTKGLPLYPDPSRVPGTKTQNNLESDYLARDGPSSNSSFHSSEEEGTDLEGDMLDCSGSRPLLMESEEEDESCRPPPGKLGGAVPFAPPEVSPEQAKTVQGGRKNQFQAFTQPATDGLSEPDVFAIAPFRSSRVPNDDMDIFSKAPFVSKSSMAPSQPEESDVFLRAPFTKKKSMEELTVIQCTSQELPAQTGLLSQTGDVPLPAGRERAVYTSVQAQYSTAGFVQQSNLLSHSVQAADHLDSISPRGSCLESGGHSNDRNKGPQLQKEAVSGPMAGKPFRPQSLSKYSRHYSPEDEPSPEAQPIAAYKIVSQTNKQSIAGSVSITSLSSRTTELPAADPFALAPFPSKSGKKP

[16] = target: Inosine-5'-monophosphate dehydrogenase 2 (Homo sapiens, UniProt P12268)
Also: in the data inactive means no Kd found up to 30 µM.

Maternal embryonic leucine zipper kinase, sequence (Q14680 whole entry): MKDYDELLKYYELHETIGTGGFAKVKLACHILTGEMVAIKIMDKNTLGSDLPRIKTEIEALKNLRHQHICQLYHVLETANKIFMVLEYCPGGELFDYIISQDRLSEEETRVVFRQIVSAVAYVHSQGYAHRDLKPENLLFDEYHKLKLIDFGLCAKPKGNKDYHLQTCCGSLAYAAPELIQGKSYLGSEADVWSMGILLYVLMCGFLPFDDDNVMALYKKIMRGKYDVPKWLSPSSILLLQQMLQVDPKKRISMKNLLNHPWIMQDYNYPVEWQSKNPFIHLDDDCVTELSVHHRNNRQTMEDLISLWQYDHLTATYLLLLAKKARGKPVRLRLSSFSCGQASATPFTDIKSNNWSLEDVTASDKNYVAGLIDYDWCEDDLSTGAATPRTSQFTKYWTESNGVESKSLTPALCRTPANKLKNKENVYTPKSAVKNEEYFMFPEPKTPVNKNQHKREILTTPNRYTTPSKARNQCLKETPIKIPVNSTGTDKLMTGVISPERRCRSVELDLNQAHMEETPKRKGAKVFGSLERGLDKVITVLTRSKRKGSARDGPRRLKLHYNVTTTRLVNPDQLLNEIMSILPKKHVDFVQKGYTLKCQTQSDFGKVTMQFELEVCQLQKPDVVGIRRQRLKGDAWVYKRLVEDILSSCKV
5'-AMP-activated protein kinase catalytic subunit alpha-1, sequence (Q13131 whole entry): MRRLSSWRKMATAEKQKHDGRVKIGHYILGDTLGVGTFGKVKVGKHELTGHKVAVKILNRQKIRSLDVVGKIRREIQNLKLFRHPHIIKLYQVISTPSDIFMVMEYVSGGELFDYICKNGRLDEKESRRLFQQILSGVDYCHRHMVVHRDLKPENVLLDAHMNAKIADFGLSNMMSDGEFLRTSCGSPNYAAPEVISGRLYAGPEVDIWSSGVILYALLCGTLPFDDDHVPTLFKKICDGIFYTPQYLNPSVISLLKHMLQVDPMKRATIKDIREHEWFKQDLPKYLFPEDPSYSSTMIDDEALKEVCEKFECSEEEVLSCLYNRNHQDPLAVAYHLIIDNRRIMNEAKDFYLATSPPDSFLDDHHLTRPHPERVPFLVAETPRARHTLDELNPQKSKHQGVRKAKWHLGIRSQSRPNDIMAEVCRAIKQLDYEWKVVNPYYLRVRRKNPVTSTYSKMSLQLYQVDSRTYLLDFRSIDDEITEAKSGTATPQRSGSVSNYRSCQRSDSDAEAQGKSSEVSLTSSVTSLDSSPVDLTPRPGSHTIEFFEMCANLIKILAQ
Proto-oncogene tyrosine-protein kinase Src, sequence (P12931 2-536 limits assumed): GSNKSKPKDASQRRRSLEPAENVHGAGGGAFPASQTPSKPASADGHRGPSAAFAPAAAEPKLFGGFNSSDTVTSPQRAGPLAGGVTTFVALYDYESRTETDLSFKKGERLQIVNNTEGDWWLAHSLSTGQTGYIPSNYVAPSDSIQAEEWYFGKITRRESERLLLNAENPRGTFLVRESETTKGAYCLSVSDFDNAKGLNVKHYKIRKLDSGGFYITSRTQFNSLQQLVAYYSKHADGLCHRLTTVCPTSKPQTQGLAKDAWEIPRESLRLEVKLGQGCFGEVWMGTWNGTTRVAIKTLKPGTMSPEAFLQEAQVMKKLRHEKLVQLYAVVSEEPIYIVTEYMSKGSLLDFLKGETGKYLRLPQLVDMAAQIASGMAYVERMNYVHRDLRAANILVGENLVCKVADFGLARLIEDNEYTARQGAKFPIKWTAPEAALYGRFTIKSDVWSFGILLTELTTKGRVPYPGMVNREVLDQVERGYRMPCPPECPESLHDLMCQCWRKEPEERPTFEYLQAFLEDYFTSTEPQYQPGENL
DNA topoisomerase 2-beta, sequence (Q02880 whole entry): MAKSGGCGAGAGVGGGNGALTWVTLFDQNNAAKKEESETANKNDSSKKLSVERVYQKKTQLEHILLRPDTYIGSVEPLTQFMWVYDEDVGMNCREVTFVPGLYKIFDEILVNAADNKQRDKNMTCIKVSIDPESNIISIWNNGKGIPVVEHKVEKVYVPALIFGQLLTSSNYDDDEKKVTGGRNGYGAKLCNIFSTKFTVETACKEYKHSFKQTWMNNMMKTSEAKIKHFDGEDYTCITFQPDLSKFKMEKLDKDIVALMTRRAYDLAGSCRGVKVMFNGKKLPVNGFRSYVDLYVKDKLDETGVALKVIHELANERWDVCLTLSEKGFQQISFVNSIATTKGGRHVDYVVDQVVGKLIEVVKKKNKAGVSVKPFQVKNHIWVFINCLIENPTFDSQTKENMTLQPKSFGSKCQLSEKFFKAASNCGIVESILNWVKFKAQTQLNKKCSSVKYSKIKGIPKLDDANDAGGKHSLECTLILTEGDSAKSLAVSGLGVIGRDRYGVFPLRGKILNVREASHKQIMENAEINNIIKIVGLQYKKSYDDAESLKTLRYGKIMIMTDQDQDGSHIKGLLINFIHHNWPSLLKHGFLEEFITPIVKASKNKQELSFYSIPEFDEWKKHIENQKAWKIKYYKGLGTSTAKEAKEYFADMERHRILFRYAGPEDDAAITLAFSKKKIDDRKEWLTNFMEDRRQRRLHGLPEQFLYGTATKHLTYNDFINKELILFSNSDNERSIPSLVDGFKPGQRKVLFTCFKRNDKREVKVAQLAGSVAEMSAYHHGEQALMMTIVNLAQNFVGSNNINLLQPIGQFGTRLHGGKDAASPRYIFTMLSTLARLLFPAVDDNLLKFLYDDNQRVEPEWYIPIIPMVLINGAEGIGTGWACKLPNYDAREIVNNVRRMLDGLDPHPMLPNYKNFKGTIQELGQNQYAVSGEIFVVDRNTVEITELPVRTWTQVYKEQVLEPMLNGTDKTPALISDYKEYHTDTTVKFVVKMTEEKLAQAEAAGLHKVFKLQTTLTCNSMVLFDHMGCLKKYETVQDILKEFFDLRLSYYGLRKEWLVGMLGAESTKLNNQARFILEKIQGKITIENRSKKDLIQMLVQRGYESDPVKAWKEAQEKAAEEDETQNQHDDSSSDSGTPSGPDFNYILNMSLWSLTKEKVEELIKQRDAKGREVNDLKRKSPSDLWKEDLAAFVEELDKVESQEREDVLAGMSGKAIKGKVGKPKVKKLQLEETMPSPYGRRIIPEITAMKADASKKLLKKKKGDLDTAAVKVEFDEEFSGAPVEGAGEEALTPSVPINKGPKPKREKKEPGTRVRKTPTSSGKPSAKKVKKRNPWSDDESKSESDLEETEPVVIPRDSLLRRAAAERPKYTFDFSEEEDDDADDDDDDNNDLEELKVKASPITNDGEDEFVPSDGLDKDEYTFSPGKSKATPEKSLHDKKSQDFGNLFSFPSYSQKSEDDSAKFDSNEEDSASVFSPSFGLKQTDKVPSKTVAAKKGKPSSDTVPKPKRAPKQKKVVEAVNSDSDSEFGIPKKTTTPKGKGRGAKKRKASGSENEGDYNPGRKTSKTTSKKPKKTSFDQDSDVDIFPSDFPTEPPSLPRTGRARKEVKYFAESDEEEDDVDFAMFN
Cyclin-dependent kinase 12, sequence (Q9NYV4 whole entry): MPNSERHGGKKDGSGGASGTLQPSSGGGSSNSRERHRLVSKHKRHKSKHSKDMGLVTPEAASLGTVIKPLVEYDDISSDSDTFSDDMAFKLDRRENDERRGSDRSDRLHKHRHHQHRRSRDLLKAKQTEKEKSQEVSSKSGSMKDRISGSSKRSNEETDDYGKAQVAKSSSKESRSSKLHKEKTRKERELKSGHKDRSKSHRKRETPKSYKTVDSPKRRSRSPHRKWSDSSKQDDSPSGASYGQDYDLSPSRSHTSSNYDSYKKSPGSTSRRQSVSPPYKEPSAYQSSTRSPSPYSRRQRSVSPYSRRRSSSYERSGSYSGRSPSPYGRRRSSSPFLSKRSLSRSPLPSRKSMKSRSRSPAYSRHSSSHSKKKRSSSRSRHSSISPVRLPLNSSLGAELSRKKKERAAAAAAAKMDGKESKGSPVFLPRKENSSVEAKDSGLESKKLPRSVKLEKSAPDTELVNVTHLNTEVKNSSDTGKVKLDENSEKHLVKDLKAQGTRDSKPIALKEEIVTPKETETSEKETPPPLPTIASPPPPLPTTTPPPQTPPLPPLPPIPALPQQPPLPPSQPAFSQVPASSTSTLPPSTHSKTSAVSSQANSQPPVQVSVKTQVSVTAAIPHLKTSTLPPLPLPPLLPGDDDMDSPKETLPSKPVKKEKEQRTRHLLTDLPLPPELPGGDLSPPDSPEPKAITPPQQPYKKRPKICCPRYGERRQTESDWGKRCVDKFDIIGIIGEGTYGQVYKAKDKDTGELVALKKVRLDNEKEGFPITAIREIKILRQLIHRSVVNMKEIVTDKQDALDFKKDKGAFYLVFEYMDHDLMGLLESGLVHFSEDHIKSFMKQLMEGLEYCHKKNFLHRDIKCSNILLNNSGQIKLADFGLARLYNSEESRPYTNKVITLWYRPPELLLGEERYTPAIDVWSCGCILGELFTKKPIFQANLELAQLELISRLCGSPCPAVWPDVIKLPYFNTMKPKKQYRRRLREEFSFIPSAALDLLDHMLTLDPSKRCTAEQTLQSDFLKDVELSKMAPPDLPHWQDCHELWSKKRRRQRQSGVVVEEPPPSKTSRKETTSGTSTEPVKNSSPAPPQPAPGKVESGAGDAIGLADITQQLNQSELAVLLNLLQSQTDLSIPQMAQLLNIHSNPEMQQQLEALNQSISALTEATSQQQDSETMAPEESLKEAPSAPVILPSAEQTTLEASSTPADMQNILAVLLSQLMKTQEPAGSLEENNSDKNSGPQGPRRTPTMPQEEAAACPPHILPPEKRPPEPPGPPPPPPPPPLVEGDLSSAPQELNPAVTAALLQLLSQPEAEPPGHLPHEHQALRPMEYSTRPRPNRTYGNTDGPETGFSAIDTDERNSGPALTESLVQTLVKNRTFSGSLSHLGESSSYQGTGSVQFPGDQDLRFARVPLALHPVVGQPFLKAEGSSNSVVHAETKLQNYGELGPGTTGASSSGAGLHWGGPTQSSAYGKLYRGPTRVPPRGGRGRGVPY

| Structure (SMILES) | Kd [1] | Kd [2] | Kd [3] | Kd [4] | Kd [5] | Kd [6] | Kd [7] | Kd [8] | Kd [9] | Kd [10] | Kd [11] | Kd [12] | Kd [13] | Kd [14] | Kd [15] | Kd [16] |
| --- | --- | --- | --- | --- | --- | --- | --- | --- | --- | --- | --- | --- | --- | --- | --- | --- |
| C[C@@H]1CN(Cc2ccc(F)cc2)[C@@H](C)CN1C(=O)c1cc2c(C(=O)C(=O)N(C)C)cn(C)c2cc1Cl [TALMAPIMOD] | > 30 µM (inactive) | > 30 µM (inactive) | > 30 µM (inactive) | > 30 µM (inactive) | > 30 µM (inactive) | > 30 µM (inactive) | > 30 µM (inactive) | > 30 µM (inactive) | > 30 µM (inactive) | > 30 µM (inactive) | > 30 µM (inactive) | > 30 µM (inactive) | > 30 µM (inactive) | > 30 µM (inactive) | > 30 µM (inactive) |  |
| O=C1NC(=O)/C(=C/c2ccc3nccc(-c4ccncc4)c3c2)S1 [GSK-1059615] | > 30 µM (inactive) | > 30 µM (inactive) | > 30 µM (inactive) | > 30 µM (inactive) | > 30 µM (inactive) | 5.25 µM (active) | > 30 µM (inactive) | > 30 µM (inactive) | > 30 µM (inactive) | > 30 µM (inactive) | > 30 µM (inactive) | > 30 µM (inactive) | > 30 µM (inactive) | > 30 µM (inactive) | 0.078 µM (active) |  |
| Cn1cc(-c2ccc3nnc(C(F)(F)c4ccc5ncccc5c4)n3n2)cn1 [JNJ-38877605] | > 30 µM (inactive) | > 30 µM (inactive) | > 30 µM (inactive) | > 30 µM (inactive) | > 30 µM (inactive) | > 30 µM (inactive) | > 30 µM (inactive) | > 30 µM (inactive) | > 30 µM (inactive) | > 30 µM (inactive) | > 30 µM (inactive) | > 30 µM (inactive) | > 30 µM (inactive) | > 30 µM (inactive) | > 30 µM (inactive) |  |
| CC(=O)Nc1cccc(-n2c(=O)n(C3CC3)c(=O)c3c(Nc4ccc(I)cc4F)n(C)c(=O)c(C)c32)c1 [TRAMETINIB] | > 30 µM (inactive) | > 30 µM (inactive) | > 30 µM (inactive) | > 30 µM (inactive) | > 30 µM (inactive) |  | > 30 µM (inactive) | > 30 µM (inactive) | > 30 µM (inactive) | > 30 µM (inactive) | > 30 µM (inactive) | > 30 µM (inactive) | > 30 µM (inactive) | > 30 µM (inactive) | > 30 µM (inactive) | > 30 µM (inactive) |
| CCn1c(=O)c(-c2cc[nH]n2)cc2c(C)nc(N)nc21 [VOXTALISIB] | > 30 µM (inactive) | > 30 µM (inactive) | > 30 µM (inactive) | > 30 µM (inactive) | > 30 µM (inactive) | > 30 µM (inactive) | > 30 µM (inactive) | > 30 µM (inactive) | > 30 µM (inactive) | > 30 µM (inactive) | > 30 µM (inactive) | > 30 µM (inactive) |  | > 30 µM (inactive) | > 30 µM (inactive) | > 30 µM (inactive) |
| Cc1ccc(NC(=O)c2ccc(CN3CC[C@H](N(C)C)C3)c(C(F)(F)F)c2)cc1Nc1nccc(-c2cncnc2)n1 [BAFETINIB] | > 30 µM (inactive) | > 30 µM (inactive) | > 30 µM (inactive) | > 30 µM (inactive) | > 30 µM (inactive) | > 30 µM (inactive) | > 30 µM (inactive) | > 30 µM (inactive) | > 30 µM (inactive) | > 30 µM (inactive) | > 30 µM (inactive) | > 30 µM (inactive) | > 30 µM (inactive) | > 30 µM (inactive) | > 30 µM (inactive) |  |
| Cc1cc2c(F)c(Oc3ncnn4cc(OC[C@@H](C)OC(=O)[C@H](C)N)c(C)c34)ccc2[nH]1 [BRIVANIB ALANINATE] | > 30 µM (inactive) | > 30 µM (inactive) | > 30 µM (inactive) | > 30 µM (inactive) | > 30 µM (inactive) | > 30 µM (inactive) | > 30 µM (inactive) | > 30 µM (inactive) | > 30 µM (inactive) | > 30 µM (inactive) | > 30 µM (inactive) | > 30 µM (inactive) | > 30 µM (inactive) | > 30 µM (inactive) | > 30 µM (inactive) |  |
| COC(=O)[C@@]1(O)C[C@H]2O[C@]1(C)n1c3ccccc3c3c4c(c5c6ccccc6n2c5c31)C(=O)NC4 [K-252A] | > 30 µM (inactive) | 1.57 µM (active) | > 30 µM (inactive) | > 30 µM (inactive) | > 30 µM (inactive) |  | 0.986 µM (active) | 0.083 µM (active) | 0.461 µM (active) | 14.7 µM (active) | > 30 µM (inactive) | > 30 µM (inactive) | > 30 µM (inactive) | > 30 µM (inactive) | 0.021 µM (active) | > 30 µM (inactive) |
| CNS(=O)(=O)Nc1nccc(Cc2c(C)c3ccc(Oc4ncccn4)cc3oc2=O)c1F [AVUTOMETINIB] | > 30 µM (inactive) | > 30 µM (inactive) | > 30 µM (inactive) | > 30 µM (inactive) | > 30 µM (inactive) |  | > 30 µM (inactive) | > 30 µM (inactive) | > 30 µM (inactive) | > 30 µM (inactive) | > 30 µM (inactive) | > 30 µM (inactive) | > 30 µM (inactive) | > 30 µM (inactive) | > 30 µM (inactive) | > 30 µM (inactive) |
| C[C@@H](Nc1cc(F)cc(F)c1)c1cc(C(=O)N(C)C)cc2c(=O)cc(N3CCOCC3)oc12 [AZD-8186] | > 30 µM (inactive) | > 30 µM (inactive) | > 30 µM (inactive) | > 30 µM (inactive) | > 30 µM (inactive) | > 30 µM (inactive) | > 30 µM (inactive) | > 30 µM (inactive) | > 30 µM (inactive) | > 30 µM (inactive) | > 30 µM (inactive) | > 30 µM (inactive) | > 30 µM (inactive) | 0.936 µM (active) | > 30 µM (inactive) |  |
